Laboratory results taken from patent US10918642B2, “N-(substituted-phenyl)-sulfonamide derivatives as kinase inhibitors” (Nerviano Medical Sciences S.R.L., priority 2016, dated 2021).

Target: PERK recombinant enzyme (cytoplasmic domain corresponding to residues 540-1115) (Homo sapiens (Human), UniProt Q9NZJ5)
Test: PERK enzyme assay, Method 1: ADP-Glo Kinase Assay (quantification of ADP formed)
Format: biochemical
Conditions: 52 microM ATP, 8 nM PERK, 300 microM eIF2alpha peptide substrate, 60 minutes at room temperature
Experimental: The biochemical activity of compounds was determined by incubation with PERK recombinant enzyme (cytoplasmic domain corresponding to residues 540-1115) and elF2alpha peptide substrate (Aminoacid sequence: LLSELSRRRIRSINK—SEQ ID Nr: 1; purchased from American Peptide Company, product #341923). This was followed by:
Method 1: Quantification of the ADP Tormed from the Kinase Reaction by ADP-Glo™ Kinase Assay (Promega Cat. 9102). Utra Pure ATP was Included into ADP-Glo™ Kinase Assay kit.
Compounds were 3-fold serially diluted in order to obtain from 3.333 to 0.000169 microM final concentration, then incubated for 60 minutes at room temperature in the presence of ATP, substrate and enzyme in a final volume of 15 microL of kinase buffer in 384-well plates (Perkin Elmer cat. #6007290).
The final concentration of the different reagents is 52 microM ATP, 8 nM PERK, 300 microM substrate, 50 mM Hepes pH 7.5, 3 mM MgCl2, 1 mM DTT, 3 microM Na3VO4, 0.2 mg/ml BSA, 1% DMSO.
After 60 minutes, an equal volume (15 microL) of ADP-Glo™ Reagent was added to each well to terminate the kinase reaction and deplete the remaining ATP. After 40 minutes, 30 microL of Kinase Detection Reagent is added, which simultaneously converts ADP to ATP and allows the newly synthesized ATP to be measured using a coupled luciferase/luciferin reaction. After further 40 minutes luminescence was read by ViewLux Instrument (Perkin Elmer). The data are analyzed by GraphPad Prism software which provides sigmoidal fittings of the curves for IC50 determination using a 4 parameter logistic equation: y=bottom+(top−bottom)/(1+10^((log IC50−x)*slope))
where x is the logarithm of the inhibitor concentration, y is the response; y starts at bottom and goes to top with a sigmoid shape.

Chain of PERK recombinant enzyme (cytoplasmic domain corresponding to residues 540-1115) (Q9NZJ5 540-1115): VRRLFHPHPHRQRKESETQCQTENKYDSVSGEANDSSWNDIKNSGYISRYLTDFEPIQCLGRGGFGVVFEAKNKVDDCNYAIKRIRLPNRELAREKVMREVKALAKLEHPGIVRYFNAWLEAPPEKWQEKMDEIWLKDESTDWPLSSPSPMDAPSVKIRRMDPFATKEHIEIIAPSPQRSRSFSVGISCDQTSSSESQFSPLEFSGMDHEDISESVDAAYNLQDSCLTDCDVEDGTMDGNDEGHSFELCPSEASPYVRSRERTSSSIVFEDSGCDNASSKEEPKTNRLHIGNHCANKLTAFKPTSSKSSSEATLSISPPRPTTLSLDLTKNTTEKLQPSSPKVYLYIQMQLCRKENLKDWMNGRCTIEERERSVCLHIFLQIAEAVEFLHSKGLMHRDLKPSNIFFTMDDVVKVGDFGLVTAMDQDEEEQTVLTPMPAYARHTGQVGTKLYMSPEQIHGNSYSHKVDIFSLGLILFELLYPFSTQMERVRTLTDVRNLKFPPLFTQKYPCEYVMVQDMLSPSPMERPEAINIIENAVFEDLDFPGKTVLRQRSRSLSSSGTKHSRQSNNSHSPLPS

pIC50	IC50 [nM]	SMILES
	15.8 to 50.1	CCN1CCC(n2cc(-c3cccc(NS(=O)(=O)c4ccc(OC)c(C)c4)c3F)c3c(N)ncnc32)CC1 [cmpd 41, N-{3-[4-Amino-7-(1-ethyl-piperidin-4-yl)-7H-pyrrolo[2,3-d]pyrimidin-5-yl]-2-fluoro-phenyl}-4-methoxy-3-methyl-benzenesulfonamide]
	50.1 to 158	COc1ccc(S(=O)(=O)Nc2cccc(-c3cn(C)c4ncnc(N)c34)c2F)cn1 [cmpd 81, 6-Methoxy-pyridine-3-sulfonic acid [3-(4-amino-7-methyl-7H-pyrrolo[2,3-d]pyrimidin-5-yl)-2-fluoro-phenyl]-amide]
C (pIC50 < 6.8)		Cn1cc(-c2cccc(NS(=O)(=O)c3ccc(O)c(Cl)c3)c2F)c2c(N)ncnc21 [cmpd 67, N-[3-(4-Amino-7-methyl-7H-pyrrolo[2,3-d]pyrimidin-5-yl)-2-fluoro-phenyl]-3-chloro-4-hydroxy-benzenesulfonamide]
	15.8 to 50.1	COc1ccc(S(=O)(=O)Nc2cccc(-c3cn(C4CCN(C5CC5)CC4)c4ncnc(N)c34)c2F)cc1C [cmpd 39, N-{3-[4-Amino-7-(1-cyclopropyl-piperidin-4-yl)-7H-pyrrolo[2,3-d]pyrimidin-5-yl]-2-fluoro-phenyl}-4-methoxy-3-methyl-benzenesulfonamide]
C (pIC50 < 6.8)		Cn1cc(-c2cccc(NS(=O)(=O)c3ccc(OC(F)(F)F)c(Cl)c3)c2F)c2c(N)ncnc21 [cmpd 50, N-[3-(4-Amino-7-methyl-7H-pyrrolo[2,3-d]pyrimidin-5-yl)-2-fluoro-phenyl]-3-chloro-4-trifluoromethoxy-benzenesulfonamide]
AA (7.8 ≤ pIC50)		COc1ccc(S(=O)(=O)Nc2cccc(-c3cn(C4CCN(C)CC4)c4ncnc(N)c34)c2F)cc1C [cmpd 38, N-{3-[4-Amino-7-(1-methyl-piperidin-4-yl)-7H-pyrrolo[2,3-d]pyrimidin-5-yl]-2-fluoro-phenyl}-4-methoxy-3-methyl-benzenesulfonamide]
	50.1 to 158	COc1cc(F)c(S(=O)(=O)Nc2cccc(-c3cn(C4CCOCC4)c4ncnc(N)c34)c2F)cc1Cl [cmpd 76, N-{3-[4-Amino-7-(tetrahydro-pyran-4-yl)-7H-pyrrolo[2,3-d]pyrimidin-5-yl]-2-fluoro-phenyl}-5-chloro-2-fluoro-4-methoxy-benzenesulfonamide]
	15.8 to 50.1	COc1ccc(S(=O)(=O)Nc2cccc(-c3cn(C4CCN(C(C)C)CC4)c4ncnc(N)c34)c2F)cc1C [cmpd 40, N-{3-[4-Amino-7-(1-isopropyl-piperidin-4-yl)-7H-pyrrolo[2,3-d]pyrimidin-5-yl]-2-fluoro-phenyl}-4-methoxy-3-methyl-benzenesulfonamide]
	50.1 to 158	COc1cc(F)c(S(=O)(=O)Nc2cccc(-c3csc4ccnc(N)c34)c2F)cc1Cl [cmpd 59, N-[3-(4-Amino-thieno[3,2-c]pyridin-3-yl)-2-fluoro-phenyl]-5-chloro-2-fluoro-4-methoxy-benzenesulfonamide]
	15.8 to 50.1	COc1ccc(S(=O)(=O)Nc2cccc(-c3cn(C)c4ncnc(N)c34)c2F)cc1C#N [cmpd 86, N-[3-(4-Amino-7-methyl-7H-pyrrolo[2,3-d]pyrimidin-5-yl)-2-fluoro-phenyl]-3-cyano-4-methoxy-benzenesulfonamide]
	15.8 to 50.1	CCn1cc(-c2cccc(NS(=O)(=O)c3cc(Cl)c(OC)cc3F)c2F)c2c(N)ncnc21 [cmpd 75, N-[3-(4-Amino-7-ethyl-7H-pyrrolo[2,3-d]pyrimidin-5-yl)-2-fluoro-phenyl]-5-chloro-2-fluoro-4-methoxy-benzenesulfonamide]

The remaining lines, values behind:

SMILES	pIC50	IC50 [nM]
Cn1cc(-c2cccc(NS(=O)(=O)c3ccc4ccccc4c3)c2F)c2c(N)ncnc21 [cmpd 20, Naphthalene-2-sulfonic acid [3-(4-amino-7-methyl-7H-pyrrolo[2,3-d]pyrimidin-5-yl)-2-fluoro-phenyl]-amide]	C (pIC50 < 6.8)	
COc1ccc(S(=O)(=O)Nc2cccc(-c3cn(C)c4ncnc(N)c34)c2F)cc1Cl [cmpd 1, N-[3-(4-Amino-7-methyl-7H-pyrrolo[2,3-d]pyrimidin-5-yl)-2-fluoro-phenyl]-3-chloro-4-methoxy-benzenesulfonamide]	A (7.3 ≤ pIC50 < 7.8)	
COc1ccc(S(=O)(=O)Nc2cccc(-c3cn(C)c4ncnc(N)c34)c2F)cc1C [cmpd 12, N-[3-(4-Amino-7-methyl-7H-pyrrolo[2,3-d]pyrimidin-5-yl)-2-fluoro-phenyl]-4-methoxy-3-methyl-benzenesulfonamide]		15.8 to 50.1
Cn1cc(-c2cccc(NS(=O)(=O)c3ccc(Cl)c(Cl)c3)c2F)c2c(N)ncnc21 [cmpd 25, N-[3-(4-Amino-7-methyl-7H-pyrrolo[2,3-d]pyrimidin-5-yl)-2-fluoro-phenyl]-3,4-dichloro-benzenesulfonamide]		15.8 to 50.1
COc1cc(F)c(S(=O)(=O)Nc2cccc(-c3cn(C4CCN(C)CC4)c4ncnc(N)c34)c2F)cc1Cl [cmpd 3, N-{3-[4-Amino-7-(1-methyl-piperidin-4-yl)-7H-pyrrolo[2,3-d]pyrimidin-5-yl]-2-fluoro-phenyl}-5-chloro-2-fluoro-4-methoxy-benzenesulfonamide]	AA (7.8 ≤ pIC50)	
Cn1cc(-c2cccc(NS(=O)(=O)c3cc(Cl)cc(Cl)c3)c2F)c2c(N)ncnc21 [cmpd 26, N-[2-(4-Amino-7-methyl-7H-pyrrolo[2,3-d]pyrimidin-5-yl)-2-fluoro-phenyl]-3,5-dichloro-benzenesulfonamide]		15.8 to 50.1
Cn1cc(-c2cccc(NS(=O)(=O)c3c(F)cccc3F)c2F)c2c(N)ncnc21 [cmpd 23, N-[3-(4-Amino-7-methyl-7H-pyrrolo[2,3-d]pyrimidin-5-yl)-2-fluoro-phenyl]-2,6-difluoro-benzenesulfonamide]		50.1 to 158
COc1cc(F)c(S(=O)(=O)Nc2cccc(-c3nn(C)c4ncnc(N)c34)c2F)cc1Cl [cmpd 9, N-[3-(4-Amino-1-methyl-1H-pyrazolo[3,4-d]pyrimidin-3-yl)-2-fluoro-phenyl]-5-chloro-2-fluoro-4-methoxy-benzenesulfonamide]	AA (7.8 ≤ pIC50)	
COc1ccc(S(=O)(=O)Nc2cccc(-c3nn(C)c4ncnc(N)c34)c2F)cc1Cl [cmpd 35, N-[3-(4-Amino-1-methyl-1H-pyrazolo[3,4-d]pyrimidin-3-yl)-2-fluoro-phenyl]-3-chloro-4-methoxy-benzenesulfonamide]	AA (7.8 ≤ pIC50)	
Cn1cc(-c2cccc(NS(=O)(=O)c3ccc4c(c3)CCO4)c2F)c2c(N)ncnc21 [cmpd 27, 2,3-Dihydro-benzofuran-5-sulfonic acid [3-(4-amino-7-methyl-7H-pyrrolo[2,3-d]pyrimidin-5-yl)-2-fluoro-phenyl]-amide]	AA (7.8 ≤ pIC50)	
COc1ccc(S(=O)(=O)Nc2cccc(-c3cn(C)c4ncnc(N)c34)c2F)cc1OC [cmpd 17, N-[3-(4-Amino-7-methyl-7H-pyrrolo[2,3-d]pyrimidin-5-yl)-2-fluoro-phenyl]-3,4-dimethm-benzenesulfonamide]		50.1 to 158
CN1CCOc2cc(S(=O)(=O)Nc3cccc(-c4cn(C)c5ncnc(N)c45)c3F)ccc21 [cmpd 18, 4-Methyl-3,4-dihydro-2H-benzo[1,4]oxazine-7-sulfonic acid [3-(4-amino-7-methyl-7H-pyrrolo[2,3-d]pyrimidin-5-yl)-2-fluoro-phenyl]-amide]		50.1 to 158
COc1ccc(S(=O)(=O)Nc2cccc(-c3cn(C4CCN(C5CC5)CC4)c4ncnc(N)c34)c2F)cc1Cl [cmpd 5, N-{3-[4-Amino-7-(1-cyclopropyl-piperidin-4-yl)-7H-pyrrolo[2,3-d]pyrimidin-5-yl]-2-fluoro-phenyl}-3-chloro-4-methoxy-benzenesulfonamide]		15.8 to 50.1
